Reference: US20100074884A1, “INHIBITION OF NEURONAL DAMAGE” (DUSKA SCIENTIFIC CO., priority 2005, published 2010)

Columns and labels:
RGCs [1] = experiment: Prevention of ATP-induced RGC damage in isolated rat retinas by P2X blockers; type: cell-based; settings: 2 hour preincubation in ACSF containing 300 μM oATP or 0.5 μM BBG
Source text: Adult animals were decapitated and the retinas quickly dissected, flattened onto nitrocellulose filters, and maintained in oxygenated ACSF. Individual RGCs were labeled by shooting 1.3 μm tungsten particles coated with Oregon Green 488 conjugated dextran (Molecular Probes, Inc., Eugene, Oreg.) into the retina using a gene gun (Bio-Rad Laboratories, Hercules, Calif.; Kettunen, et al. (2002) J. Neurosci. Methods 119:37-43). Individual RGCs were imaged by placing the retinas in oxygenated ACSF within a custom-made 4 ml observation chamber on the stage of a Zeiss Axioplan fluorescence microscope equipped with a black and white CCD camera (Chroma DTA, Pisa, Italy). Observations were performed at room temperature (25-28° C.). A 40× Olympus immersion objective (N.A. 0.80) was used and excitation light was kept below 10% of its maximum intensity. Less than 5 RGCs per retina were analyzed to minimize light exposure. Loss of membrane integrity was assessed by adding 1.5 μM PI to the ACSF for 1 minute. Exposure of phospatidylserine on the outer membrane leaflet was evidenced by a 20 minute incubation in ACSF containing 3 μg/ml Cy3-Annexin V. […]
Incubation of isolated rat retinas in 1 mM ATP induced the same effects obtained with repeated pressure increments, causing cell blebbing and uptake of PI in all the RGCs tested (35/35 tested) within 1 hour, except in α-type RGCs (0/15). […]

RGCs [2] = experiment: Pressure-induced RGC damage in isolated rat retinas (pressure controlled incubation, imaging of living RGCs); type: cell-based; settings: for signs of pressure induced RGC damage: 7×90 (7 one-minute pulses at 90 mm Hg, then 1 hour at 12 mm Hg), 30 U/ml apyrase, 300 μM oATP or 0.5 μM BBG
Experimental: Pressure controlled incubation: A free-standing bioreactor chamber was used for incubation of living retinas (e.g., rat retinas) in artificial cerebrospinal fluid (ACFS; Stacy et al. (2003) J. Comp. Neurol. 456:154-166) under controlled temperature (33±0.5° C.; pH 7.4±0.1), and hydrostatic pressure conditions (10-90 mm Hg, resolution 2 mm Hg; Previti, et al. (2002) IEEE-EMBS Special Topic conference on Molecular, Cellular and Tissue Engineering, 1:157-158). Rat retinas were allowed to stabilize at 12 mm Hg for 5 minutes, and 1 minute pressure increments were applied, reaching a peak value in less than 20 seconds. Consecutive pressure transients were separated by 1 minute at 12 mm Hg. Hydrostatic pressure and pH were regulated by electronically controlled air/CO2 admission in the incubator chamber.
Imaging living RGCs: Experiments were performed on Long Evans rats according to the ARVO and national regulation on animal experimentation. All chemicals were obtained from Sigma (St. Louis, Mo.) unless otherwise specified.
(§1) Adult animals were decapitated and the retinas quickly dissected, flattened onto nitrocellulose filters, and maintained in oxygenated ACSF. Individual RGCs were labeled by shooting 1.3 μm tungsten particles coated with Oregon Green 488 conjugated dextran (Molecular Probes, Inc., Eugene, Oreg.) into the retina using a gene gun (Bio-Rad Laboratories, Hercules, Calif.; Kettunen, et al. (2002) J. Neurosci. Methods 119:37-43). Individual RGCs were imaged by placing the retinas in oxygenated ACSF within a custom-made 4 ml observation chamber on the stage of a Zeiss Axioplan fluorescence microscope equipped with a black and white CCD camera (Chroma DTA, Pisa, Italy). Observations were performed at room temperature (25-28° C.). A 40× Olympus immersion objective (N.A. 0.80) was used and excitation light was kept below 10% of its maximum intensity. Less than 5 RGCs per retina were analyzed to minimize light exposure. Loss of membrane integrity was assessed by adding 1.5 μM PI to the ACSF for 1 minute. Exposure of phospatidylserine on the outer membrane leaflet was evidenced by a 20 minute incubation in ACSF containing 3 μg/ml Cy3-Annexin V. In some experiments, RGCs were preincubated with oxidized-ATP (oATP) for 2 hours or with Brilliant BlueG (BBG) for 30 minutes prior to imaging.
RGC were incubated with the following agents: 30 U/ml apyrase (an enzyme that degrades extracellular ATP; North, supra); 300 μM oATP (an irreversible blocker of P2X receptors; North, supra); or 0.5 μM BBG (a selective and reversible inhibitor of rat P2X7 receptors; North, supra).

RGCs [3] = experiment: Application of ATP or P2X7 agonist to isolated rat retinas, RGC damage; type: cell-based
Source text: as §1
Incubation of isolated rat retinas in 1 mM ATP induced the same effects obtained with repeated pressure increments, causing cell blebbing and uptake of PI in all the RGCs tested (35/35 tested) within 1 hour, except in α-type RGCs (0/15). The same effects were obtained applying the potent P2X7 receptor agonist 2′,3′-benzoyl-4-benzoyl-ATP (BzATP; 0.1 mM; 10/10 non-α-RGCs).

RGC light response = experiment: Extracellular electrophysiological recordings in the optic tract, RGC light response after IOP transient; type: in vivo, rat
Experimental: Extracellular electrophysiological recordings: Experimental procedures for extracellular electrophysiological recordings are as described (Caleo et al. (2003) J. Neurosci. 23(1):287-296.). Briefly, rats aged between P25 and P30 were anesthetized with urethane (20% solution in saline; 0.7 ml/100 g of body weight, i.p.; Sigma) and placed in a stereotaxic frame. Both eyes were fixed by means of adjustable metal rings surrounding the external portion of the eye bulb. Body temperature was continuously monitored and maintained at 37° C. by a thermostat-controlled electric blanket. […]
Experiments were conducted to determine (1) whether intraocular injection of apyrase had any deleterious effects on RGC firing activity and light response, and (2) whether intraocular injection of apyrase had any effect on RGC light response recovery following a transient IOP elevation in vivo. Multi-unit spike activity evoked by a light flash was recorded in the optic tract at five minute intervals before and after an IOP pulse at 90 mmHg for 1 minute. […] Quantifying response as the average firing rate in the interval 0-2 seconds after flash onset, the average maximal response decrement was 80±16%; N=15, and the average time needed to recover at least 85% of the initial response was 32±4 minutes after the IOP spike. […]

RGCs [4] = experiment: Pressure transients in vivo, PI staining of cells in the ganglion cell layer; set-up: species or system rat; settings: apyrase 30 U/ml intraocularly 5 minutes before pressure; 2 minutes at 50 mm Hg; retinas isolated after one hour
Experimental: Pressure transients in vivo: Adult Long Evans rats were deeply anaesthetized by intraperitoneal injection with Avertine (10 ml/kg body weight, 3.3% tri-bromo-ethanol, 2% tertiary amyl-alcohol in saline) and their right eyes were incannulated with a 30 Gauge needle connected to a pressure apparatus, which was a column of ACSF held at appropriate height. Eye pressure was increased to 50 mm Hg for 2 minutes by switching on the connection between the needle and the column of ACSF. A piezo-resistive pressure sensor (RS Electronics) controlled pressure values and line tightness. […] After pressure application, the animals were returned to their cages for recovery. Retinas were isolated after one hour. Control eyes were incannulated, but no pressure transient was applied. To analyze the effects of blocking eATP in vivo, 2 μl apyrase (30 U/ml intraocular concentration) were injected intraocularly 5 minutes before pressure application. To evaluate cell damage, PI labeled cells were imaged across the retinal area in 10 evenly spaced (370×250 μm^2) sample fields per retina. This dye permits assessment of membrane integrity, as cells with reduced membrane integrity are permeable to and become stained with the dyes. Retina dissection, histological and immunocytochemical treatments for long term analysis were performed as described (Galli-Resta et al. (1997) J. Neurosci. 17:7831-7838). […]

[5] = two hours after ATP application

With `Nc1ncnc2c1ncn2[C@@H](C=O)O[C@@H](C=O)COP(=O)(O)OP(=O)(O)OP(=O)(O)O` [oATP, oxidized-ATP] the “ATP-induced RGC damage, damaged/tested non-α-RGCs” value (RGCs [1]) was 0/20 and the “signs of pressure induced RGC damage” value (RGCs [2]) was “prevented all signs of pressure induced RGC damage”.

`Nc1ncnc2c1ncn2[C@@H]1O[C@H](COP(=O)(O)OP(=O)(O)OP(=O)(O)O)[C@@H](O)[C@H]1O` [ATP, adenosine 5′-triphosphate] was tested, and the “cell blebbing and uptake of PI, affected/tested RGCs” value (RGCs [3]; 1 mM ATP, within 1 hour, RGCs other than α-type) was 35/35, the “cell blebbing and uptake of PI, affected/tested α-type RGCs” value (RGCs [3]; 1 mM ATP, within 1 hour, α-type RGCs) was 0/15 and the “cell soma shrinkage or fragmentation, RGCs” value (RGCs [3]; [5]) was 10/10. For the same compound, the “phosphatidylserine exposure on the external membrane (Annexin V binding), RGCs” value (RGCs [3]; [5]) was 7/7.

For `Nc1ncnc2c1ncn2[C@@H]1O[C@H](COP(=O)(O)OP(=O)(O)OP(=O)(O)O)[C@@H](OC(=O)c2ccc(C(=O)c3ccccc3)cc2)[C@H]1O` [BzATP, 2′,3′-benzoyl-4-benzoyl-ATP], the “cell blebbing and uptake of PI, affected/tested non-α-RGCs” value (RGCs [3]; 0.1 mM BzATP) was 10/10.

In the case of apyrase, the “spike activity before pressure application” value (RGC light response; apyrase 30 U/ml intraocularly) is reported as “not significantly altering”, the “average response recovery-time (at least 85% of initial response)” value (RGC light response; apyrase 30 U/ml intraocularly 1-3 hours before IOP pulse at 90 mmHg for 1 minute, N=8) is reported as 11.2 ± 2.6 min and the “pressure-induced RGC damage in vivo (PI staining)” value (RGCs [4]) is reported as “totally prevented”. The “signs of pressure induced RGC damage” value (RGCs [2]) was “prevented all signs of pressure induced RGC damage” and the “blebbing or permeability to PI when pressure applied” value (RGCs [2]; in the presence of apyrase 30 U/ml) was “no blebbing or permeability to PI was observed”.

For `CCOc1ccc(Nc2ccc(/C(=C3C=C/C(=[N+](/CC)Cc4cccc(S(=O)(=O)[O-])c4)C=C/3C)c3ccc(N(CC)Cc4cccc(S(=O)(=O)O)c4)cc3C)cc2)cc1` [BBG, Brilliant BlueG], the “ATP-induced RGC damage, damaged/tested non-α-RGCs” value (RGCs [1]) was 0/15 and the “signs of pressure induced RGC damage” value (RGCs [2]) was “prevented all signs of pressure induced RGC damage”.
